These results are taken from the SangsterLogP compilation.

A short description of this data set: method code SF-HPLC, from DOI: 10.1002/qsar.200860138. The conditions noted are these: pH 3.0.
A word on the logD: it is the decadic logarithm of the distribution of all forms, ionised or not, between an organic phase and buffer at a given pH. Read a high logD as higher lipophilicity. Regarding `O=C(O)Cn1cc(C(=O)c2ccccc2)c2ccccc21`, the logD amounted to 2.57.
To `O=C(O)Cc1ccc(C(=O)c2ccccc2)[nH]1` belongs 1.87; to `Cc1ccc(C(=O)c2ccn(CC(=O)O)c2)cc1`, 1.27; to `O=C(O)Cn1ccc(C(=O)c2ccc3ccccc3c2)c1`, 2.27.
For `COc1ccc(C(=O)c2cccn2CC(=O)O)cc1`, the logD amounted to 1.65.
In turn, `O=C(O)Cn1ccc(C(=O)c2ccc([N+](=O)[O-])cc2)c1` registered a logD of 0.93.
For `COc1ccc(C(=O)c2cc(C(=O)c3ccc(OC)cc3)n(CC(=O)O)c2)cc1` the value was 3.15; for `O=C(O)Cn1ccc(C(=O)c2ccc(C(F)(F)F)cc2)c1`, 2; for `O=C(O)Cn1cc(C(=O)c2ccccc2)cc1C(=O)c1ccccc1`, 2.12.
Consider `O=C(O)Cn1ccc(-c2nc3ccccc3s2)c1`, for which the logD came to 2.22.
Compound `COc1ccc(C(=O)c2ccn(CC(=O)O)c2)cc1` gave a log distribution coefficient (logD) of 1.57.
For `O=C(O)Cn1ccc(C(=O)c2ccc(Cl)cc2)c1` the value was 1.95.
